Results as given in patent US20010020002A1, “Androgen activity antagonists as therapies for anorexia, anorexia nervosa and disorders characterized by a pathologically underweight condition” (VELA PHARMACEUTICALS INC., priority 1997, published 2001).

Tests used:
[1] = in vivo; cited from earlier work
[2] = Example 1: flutamide therapy of a patient with anorexia nervosa; type: in vivo, human; conditions: person with AN, 250 mg daily, follow-up in one week
Procedure: The dose of flutamide is increased to 500 mg daily (250 mg twice a day). They then return every month for an assessment of their symptomatology using the Yale-Brown-Cornell Eating Disorder Scale (YBC-EDS).

[3] = Example 5: flutamide therapy of cachexia in an AIDS patient; type: in vivo, human; conditions: person with AIDS, 750 mg daily in three divided doses

SMILES	half-life [1] [h]	tolerability of therapy [2]	initial side effects [3]	tolerability of therapy [3]
CC1(C)NC(=O)N(c2ccc([N+](=O)[O-])c(C(F)(F)F)c2)C1=O [Nilutamide, nilutamide]	40	–	–	–
CC(C)C(=O)Nc1ccc([N+](=O)[O-])c(C(F)(F)F)c1 [flutamide]	5.2	tolerated the therapy well	initial problems with diarrhea and breast tenderness	tolerated well
